Experimental data taken from ChEMBL document CHEMBL4007459, “Design of Potent mRNA Decapping Scavenger Enzyme (DcpS) Inhibitors with Improved Physicochemical Properties To Investigate the Mechanism of Therapeutic Benefit in Spinal Muscular Atrophy (SMA)” (J Med Chem, 2017).
In brackets after ≈: the same amount, converted by molar mass. Blank lines part the entries; values can stand above or below the compound they belong to.

Assays:
[1] = Drug uptake in HEK293 cells at 10 nM in presence of vacuolar type ATPase inhibitor concanamycin A measured after […]; type: ADME, cell-based; details: human, 0.01 µM
[2] = Drug uptake in lymphoblasts (unknown origin) at 10 nM in presence of vacuolar type ATPase inhibitor bafilomycin measured after […]; type: ADME, cell-based; details: lymphoblast, 0.01 µM
[3] = Drug uptake in lymphoblasts (unknown origin) at 10 nM in presence of vacuolar type ATPase inhibitor concanamycin A measured after […]; type: ADME, cell-based; details: lymphoblast, 0.01 µM
[4] = Drug uptake in HEK293 cells at 10 nM in presence of vacuolar type ATPase inhibitor bafilomycin measured after […]; type: ADME, cell-based; details: human, 0.01 µM
Dihydrofolate reductase = molecular target: T1, Dihydrofolate reductase (Homo sapiens, UniProt P00374); test: Inhibition of DHFR (unknown origin)
T1 sequence (P00374 whole entry): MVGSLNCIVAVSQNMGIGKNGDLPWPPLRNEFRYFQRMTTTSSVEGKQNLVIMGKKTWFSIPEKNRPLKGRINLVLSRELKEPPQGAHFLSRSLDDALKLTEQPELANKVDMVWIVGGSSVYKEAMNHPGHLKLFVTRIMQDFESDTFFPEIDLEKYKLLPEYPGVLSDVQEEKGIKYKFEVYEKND

[5] = Drug uptake in lymphoblasts (unknown origin) at 100 nM in presence of vacuolar type ATPase inhibitor bafilomycin measured after […]; type: ADME, cell-based; details: lymphoblast, 0.1 µM
[6] = Drug uptake in lymphoblasts (unknown origin) at 100 nM in presence of vacuolar type ATPase inhibitor concanamycin A measured after […]; type: ADME, cell-based; details: lymphoblast, 0.1 µM
[7] = Drug uptake in HEK293 cells at 100 nM in presence of vacuolar type ATPase inhibitor bafilomycin measured after […]; type: ADME, cell-based; details: human, 0.1 µM
[8] = Drug uptake in HEK293 cells at 100 nM in presence of vacuolar type ATPase inhibitor concanamycin A measured after […]; type: ADME, cell-based; details: human, 0.1 µM
[9] = Apparent passive permeability across apical to basolateral side in RRCK2 cells at 2 uM; type: ADME, cell-based, Canis lupus familiaris; details: dog, MDCK
[10] = Lipophilicity, log D of the compound at pH 7.4; type: physicochemical; details: buffer
[11] = Apparent intrinsic clearance in human liver microsomes at 1 uM; type: ADME, microsome; details: read-out: CLH(app)
[12] = Kinetic solubility of the compound at pH 6.5; details: buffer
[13] = Stability in human liver microsomes at 1 uM; type: ADME, microsome; details: read-out: Stability
Plasma = test: Unbound fraction in FVB/N mouse plasma at 30 mg/kg, ip; type: ADME, organism-based; details: in vivo
m7GpppX diphosphatase = molecular target: T2, m7GpppX diphosphatase (Homo sapiens, UniProt Q96C86)
T2 sequence (Q96C86 whole entry): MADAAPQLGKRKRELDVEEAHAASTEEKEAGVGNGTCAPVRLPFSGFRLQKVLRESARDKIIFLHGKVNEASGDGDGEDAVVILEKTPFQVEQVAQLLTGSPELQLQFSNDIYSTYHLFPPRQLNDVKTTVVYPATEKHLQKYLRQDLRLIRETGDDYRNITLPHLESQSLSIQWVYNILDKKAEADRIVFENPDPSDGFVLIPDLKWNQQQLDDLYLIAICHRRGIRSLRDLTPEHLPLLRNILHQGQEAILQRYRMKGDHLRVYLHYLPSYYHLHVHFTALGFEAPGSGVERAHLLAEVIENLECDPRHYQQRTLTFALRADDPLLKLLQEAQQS
Description: Inhibition of human DcpS assessed as increase in SMN2 promoter activity

SMILES: CC1(COc2cccc3nc(N)nc(N)c23)COC1
IC50 (Dihydrofolate reductase): 15 µM

SMILES: CCN(CC)CCCC(C)Nc1ccnc2cc(Cl)ccc12 (centres undefined) [CHLOROQUINE]
Drug uptake [5]: Not Active
Drug uptake [6]: Not Active
Drug uptake [7]: Not Active
Drug uptake [8]: Not Active

SMILES: COC[C@@H](C)Oc1cccc2nc(N)nc(N)c12
IC50 (Dihydrofolate reductase): 25 µM

SMILES: Nc1nc(N)c2c(OCC3CCOCC3)cccc2n1
IC50 (Dihydrofolate reductase): 28 µM

SMILES: Nc1nc(N)c2c(OCC3CCN(Cc4c(Cl)cccc4Cl)CC3)cccc2n1
Drug uptake [1]: Not Active
Papp A→B at 2 µM [9]: 0.62 ×10⁻⁶ cm/s
Drug uptake [2]: Not Active
logD [10]: 2.8
Drug uptake [3]: Not Active
microsomal CLint at 1 µM [11]: > 250 µL/min/mg
solubility kinetic [12]: 45 µM (≈ 19.5 µg/mL)
half-life at 1 µM [13]: 3 min
Drug uptake [4]: Not Active

SMILES: COC[C@H](C)Oc1cccc2nc(N)nc(N)c12
IC50 (Dihydrofolate reductase): 1.4 µM

SMILES: Cc1cc(OCC2CCOCC2)c2c(N)nc(N)nc2c1
IC50 (m7GpppX diphosphatase): > 10 µM

The next lines start with the values.

Drug uptake [1]: Not Active
Drug uptake [2]: Not Active
Drug uptake [3]: Not Active
Drug uptake [4]: Not Active
SMILES: Nc1nc(N)c2c(OCC3CCN(Cc4ccccc4F)CC3)cccc2n1

IC50 (Dihydrofolate reductase): 0.63 µM
SMILES: Nc1nc(N)c2c(OCc3cc(F)cc(F)c3)cccc2n1

Drug uptake [1]: Not Active
Papp A→B at 2 µM [9]: 18 ×10⁻⁶ cm/s
IC50 (Dihydrofolate reductase): > 150 µM
Drug uptake [2]: Not Active
logD [10]: 1.4
Drug uptake [3]: Not Active
microsomal CLint at 1 µM [11]: < 8 µL/min/mg
solubility kinetic [12]: 274 µM (≈ 77.1 µg/mL)
half-life at 1 µM [13]: > 120 min
Drug uptake [4]: Not Active
SMILES: Cc1ncccc1OCc1cccc2nc(N)nc(N)c12

Drug uptake [1]: Not Active
Drug uptake [2]: Not Active
Drug uptake [3]: Not Active
Drug uptake [4]: Not Active
SMILES: Nc1nc(N)c2c(OCC3CCN(Cc4c(F)cccc4Cl)CC3)cccc2n1

IC50 (Dihydrofolate reductase): > 50 µM
SMILES: Nc1nc(N)c2c(COc3ccc(F)cc3F)cccc2n1

IC50 (Dihydrofolate reductase): 38 µM
SMILES: Nc1nc(N)c2c(COc3cccc(Cl)c3)cccc2n1

IC50 (Dihydrofolate reductase): > 50 µM
SMILES: Nc1nc(N)c2c(COc3cccc(F)c3)cccc2n1

Papp A→B at 2 µM [9]: 13 ×10⁻⁶ cm/s
IC50 (Dihydrofolate reductase): 52 µM
Cp(f) (Plasma): 173 nM
logD [10]: 1.9
microsomal CLint at 1 µM [11]: < 8.4 µL/min/mg
solubility kinetic [12]: 31 µM (≈ 9.59 µg/mL)
half-life at 1 µM [13]: > 115 min
SMILES: N#Cc1cc(F)cc(OCc2cccc3nc(N)nc(N)c23)c1

IC50 (m7GpppX diphosphatase): > 10 µM
SMILES: Cc1cc(COc2cc(F)cc(C#N)c2)c2c(N)nc(N)nc2c1

IC50 (Dihydrofolate reductase): > 30 µM
SMILES: Nc1nc(N)c2c(COc3ccccc3F)cccc2n1
